Measured values as given in article PMC10243163, “A frog‐derived antimicrobial peptide as a potential anti‐biofilm agent in combating Staphylococcus aureus skin infection” (Journal of Cellular and Molecular Medicine, 2023).
≈ marks a conversion by molar mass, not a printed value. Read-outs that look alike come from different tables or passages of the source. Positions of bridges follow the written chain, without caps; N, C: chain ends. Residues, ends and D or L forms follow the SMILES beside them. No end group written: not given here.

Assays:
S. aureus ATCC 6538 [1] = format: cell-based, Staphylococcus aureus; settings: ATCC 6538, 24 h
Experimental: (§1) Peptide solutions were first mixed with bacterial cultures (5 × 10^5 CFU/mL) and incubated at 37°C for 24 h. The planktonic bacterial cells were gently removed by washing with PBS the next day, and methanol was utilised to fix the biofilm. Crystal violet (0.1% v/v), PBS and acetic acid (30%, v/v) were subsequently used to stain biofilm, remove remaining stains and re‐dissolve stains, respectively. The absorbance was determined at 595 nm. The experiments were conducted in three independent runs.

K. pneumoniae ATCC 43816 = format: cell-based, Klebsiella pneumoniae
Experimental: (§2) Antimicrobial assays were conducted using standard broth micro‐dilutions, as mentioned previously.[11] Gram‐positive bacteria S. aureus (ATCC 6538), Methicillin‐resistant S. aureus (MRSA; NCTC 12493), […] (NCTC 12697), Gram‐negative bacteria Escherichia coli (ATCC 8739), Klebsiella pneumoniae (ATCC 43816), Pseudomonas aeruginosa (ATCC 9027), Acinetobacter baumannii (ATCC BAA 747), and yeast, Candida albicans (ATCC 10231) were used in the test. The experiments were conducted in three independent runs.

MRSA NCTC 12493 [2] = format: cell-based, Methicillin‐resistant S. aureus
Experimental: as §2

[3] = tested on: Gram‐positive and Gram‐negative test bacteria; format: cell-based
Experimental: as §2

E. faecalis NCTC 12697 [4] = format: cell-based; settings: NCTC 12697, 24 h
Experimental: as §1

P. aeruginosa ATCC 9027 [5] = format: cell-based, Pseudomonas aeruginosa
Experimental: as §2

E. coli ATCC 8739 [6] = format: cell-based, Escherichia coli
Experimental: as §2

MRSA NCTC 12493 [7] = format: cell-based, Methicillin‐resistant S. aureus; settings: NCTC 12493, 24 h
Experimental: as §1

C. albicans ATCC 10231 = format: cell-based, Candida albicans
Experimental: as §2

E. coli ATCC 8739 [8] = format: cell-based, Escherichia coli; settings: ATCC 8739, 24 h
Experimental: as §1

P. aeruginosa ATCC 9027 [9] = format: cell-based, Pseudomonas aeruginosa; settings: ATCC 9027, 24 h
Experimental: as §1

E. faecalis NCTC 12697 [10] = format: cell-based
S. aureus ATCC 6538 [11] = format: cell-based, Staphylococcus aureus
Experimental: as §2

[12] = tested on: Gram‐positive and Gram‐negative test bacteria; format: cell-based; settings: geometric mean of MICs against the three Gram‐negative strains
MRSA NCTC 12493 [13] = experiment: Ex vivo porcine skin infection model; set-up: species or system Methicillin‐resistant S. aureus; settings: vancomycin 8 μM, 4 h
Experimental: The antibacterial efficacy of OG9 and OG9c‐De‐NH2 was further evaluated in an ex vivo porcine skin model, as reported.[27] The porcine skin was shaved and cleaned with 70% ethanol and dd H2O. The polyethylene tubing was glued to the cleaned skin surface with cyanoacrylate glue. Exponential or persister cells were inoculated to infect each skin sample. After 15 min of incubation at 37°C, each skin sample was treated with peptides at concentrations of 1 × or 10 × MIC or vancomycin (8 μM). After another 4 h of incubation, each tubing well was washed with PBS. Ten microliters of the mixture in each well was diluted with PBS buffer and spotted on the agar plate. The number of viable bacteria cells was counted after overnight incubation. The experiments were conducted in three independent runs.

horse erythrocytes = experiment: Haemolytic activity; format: cell-based; settings: 128 μM peptide; horse erythrocytes 2% v/v, 37°C, 2 h; 0.1% Triton X‐100 positive control; absorbance 570 nm; three independent runs
Experimental: The haemolytic activity of peptides was conducted using horse erythrocytes (2%, v/v). Peptide solutions were mixed with washed horse erythrocyte suspension at 37°C for 2 h. Triton X‐100 (0.1%) was used as a positive control. The mixture was then centrifuged at 930 g for 5 min. The absorbance of the supernatants was detected at 570 nm. The haemolysis rate was calculated using the formula: Haemolysis%=Sample group−negative group/positive group−negative group×100%.
This experiment was performed in three independent runs.

[14] = geometric mean of MICs against all test bacteria
[15] = geometric mean of MICs against the three Gram‐positive strains

| Molecule | MBC (K. pneumoniae ATCC 43816) [µM] | MIC (K. pneumoniae ATCC 43816) [µM] | MBC (MRSA NCTC 12493 [2]) [µM] | MIC (MRSA NCTC 12493 [2]) [µM] | GM MIC, total bacteria [3, 14] [µM] | GM MIC, G+ [3, 15] [µM] | MBC (P. aeruginosa ATCC 9027 [5]) [µM] | MIC (P. aeruginosa ATCC 9027 [5]) [µM] | MBC (E. coli ATCC 8739 [6]) [µM] | MIC (E. coli ATCC 8739 [6]) [µM] | MBC (C. albicans ATCC 10231) [µM] | MIC (C. albicans ATCC 10231) [µM] | MBC (E. faecalis NCTC 12697 [10]) [µM] | MIC (E. faecalis NCTC 12697 [10]) [µM] | MBC (S. aureus ATCC 6538 [11]) | GM MIC, G− [12] [µM] | MIC (S. aureus ATCC 6538 [11]) [µM] | Haemolysis (horse erythrocytes) | other results |
| --- | --- | --- | --- | --- | --- | --- | --- | --- | --- | --- | --- | --- | --- | --- | --- | --- | --- | --- | --- |
| FPLIARLAAKFLPKIL-NH2 [OG9c‐De‐NH2] | 4 | 4 | 2 | 2 | 3.6 | 3.2 | 8 | 8 | 2 | 2 | 16 | 16 | 8 | 8 | 2/2 μM | 4 |  |  | MBIC (S. aureus ATCC 6538 [1]): 1 µM; MBIC (E. faecalis NCTC 12697 [4]): 16 µM; MBIC (MRSA NCTC 12493 [7]): 1 µM; MBIC (E. coli ATCC 8739 [8]): 16 µM; MBIC (P. aeruginosa ATCC 9027 [9]): 64 µM |
| CN[C@H](CC(C)C)C(=O)N[C@H]1C(=O)N[C@@H](CC(N)=O)C(=O)N[C@H]2C(=O)N[C@H]3C(=O)N[C@H](C(=O)N[C@H](C(=O)O)c4cc(O)cc(O)c4-c4cc3ccc4O)[C@H](O)c3ccc(c(Cl)c3)Oc3cc2cc(c3O[C@@H]2O[C@H](CO)[C@@H](O)[C@H](O)[C@H]2O[C@H]2C[C@](C)(N)[C@H](O)[C@H](C)O2)Oc2ccc(cc2Cl)[C@H]1O [Vancomycin] |  |  |  |  |  |  |  |  |  |  |  |  |  |  |  |  |  |  | Ex vivo effect on exponential MRSA cells (MRSA NCTC 12493 [13]): weak inhibiting effect |
| FPLIARLAAKFLPKIL [OG9c‐De] | 32 | 32 | 16 | 16 |  |  | 64 | 16 | 16 | 16 | 16 | 16 | 64 | 64 | 16 µM |  | 16 |  | GM MIC, G+ [3]: 25.4 µM; GM MIC, G− [3]: 20.2 µM; GM MIC, total bacteria [3]: 22.6 µM |
| FPLIAGLAANFLPKIL-NH2 [OG9‐De‐NH2] | > 128 | > 128 | > 128 | > 128 |  |  | > 128 | > 128 | > 128 | > 128 | > 128 | > 128 | > 128 | > 128 | > 128 µM |  | > 128 | no apparent haemolysis |  |
| CC[C@H](C)[C@@H]1NC(=O)[C@H](C)NC(=O)[C@@H](NC(=O)[C@H](CC(C)C)NC(=O)[C@@H](NC(=O)[C@H](CCCCN)NC(=O)[C@@H]2CCCN2C(=O)[C@H](CC(C)C)NC(=O)[C@H](Cc2ccccc2)NC(=O)[C@H](CC(N)=O)NC(=O)[C@H](C)NC(=O)[C@H](C)NC(=O)[C@H](CC(C)C)NC(=O)CNC(=O)[C@H](C)NC(=O)[C@@H](NC(=O)[C@H](CC(C)C)NC(=O)[C@@H]2CCCN2C(=O)[C@@H](N)Cc2ccccc2)[C@@H](C)CC)[C@@H](C)CC)CSSC[C@@H](C(=O)O)NC(=O)[C@H](CCCCN)NC(=O)[C@H](CCCNC(=N)N)NC(=O)[C@H](C)NC1=O [OG9a] (H-FPLIAGLAANFLPKILCAIARKC-OH; disulfide 17-23) | 16 (≈ 39.1 µg/mL) | 16 (≈ 39.1 µg/mL) | 16 (≈ 39.1 µg/mL) | 16 (≈ 39.1 µg/mL) | 20.2 | 10.1 | > 128 | > 128 | 8 (≈ 19.5 µg/mL) | 8 (≈ 19.5 µg/mL) | > 128 | > 128 | 16 (≈ 39.1 µg/mL) | 16 (≈ 39.1 µg/mL) | 8 µM (≈ 19.5 µg/mL) | 40.3 | 4 (≈ 9.77 µg/mL) | 90% |  |
| FPLIAGLAANFLPKIL [OG9‐De] | > 128 | > 128 | > 128 | > 128 |  |  | > 128 | > 128 | > 128 | > 128 | > 128 | > 128 | > 128 | > 128 | > 128 µM |  | > 128 | no apparent haemolysis |  |
| CC[C@H](C)[C@@H]1NC(=O)CNC(=O)[C@@H](NC(=O)[C@H](CC(C)C)NC(=O)[C@@H](NC(=O)[C@H](CCCCN)NC(=O)[C@@H]2CCCN2C(=O)[C@H](CC(C)C)NC(=O)[C@H](Cc2ccccc2)NC(=O)[C@H](CCCCN)NC(=O)[C@H](C)NC(=O)[C@H](C)NC(=O)[C@H](CC(C)C)NC(=O)[C@H](CCCNC(=N)N)NC(=O)[C@H](C)NC(=O)[C@@H](NC(=O)[C@H](CC(C)C)NC(=O)[C@@H]2CCCN2C(=O)[C@@H](N)Cc2ccccc2)[C@@H](C)CC)[C@@H](C)CC)CSSC[C@@H](C(=O)O)NC(=O)[C@H](CCCCN)NC(=O)[C@H](CC(N)=O)NC(=O)[C@H](C)NC1=O [OG9c] (H-FPLIARLAAKFLPKILCGIANKC-OH; disulfide 17-23) | 8 (≈ 20 µg/mL) | 8 (≈ 20 µg/mL) | 8 (≈ 20 µg/mL) | 8 (≈ 20 µg/mL) |  |  | 16 (≈ 40 µg/mL) | 16 (≈ 40 µg/mL) | 4 (≈ 10 µg/mL) | 4 (≈ 10 µg/mL) | 64 (≈ 160 µg/mL) | 64 (≈ 160 µg/mL) | 16 (≈ 40 µg/mL) | 16 (≈ 40 µg/mL) | 4 µM (≈ 10 µg/mL) |  | 4 (≈ 10 µg/mL) |  | GM MIC, G+ [3]: 8/8/8 μM; GM MIC, G− [3]: 8/8/8 μM; GM MIC, total bacteria [3]: 8/8/8 μM |
| CC[C@H](C)[C@@H]1NC(=O)[C@H](C)NC(=O)[C@@H](NC(=O)[C@H](CC(C)C)NC(=O)[C@@H](NC(=O)[C@H](CCCCN)NC(=O)[C@@H]2CCCN2C(=O)[C@H](CC(C)C)NC(=O)[C@H](Cc2ccccc2)NC(=O)[C@H](CC(N)=O)NC(=O)[C@H](C)NC(=O)[C@H](CCCCN)NC(=O)[C@H](CC(C)C)NC(=O)CNC(=O)[C@H](C)NC(=O)[C@@H](NC(=O)[C@H](CC(C)C)NC(=O)[C@@H]2CCCN2C(=O)[C@@H](N)Cc2ccccc2)[C@@H](C)CC)[C@@H](C)CC)CSSC[C@@H](C(=O)O)NC(=O)[C@H](CCCCN)NC(=O)[C@H](CCCNC(=N)N)NC(=O)[C@H](C)NC1=O [OG9b] (H-FPLIAGLKANFLPKILCAIARKC-OH; disulfide 17-23) | 16 (≈ 40 µg/mL) | 16 (≈ 40 µg/mL) | > 128 | > 128 | 50.8 | 161.3 | 64 (≈ 160 µg/mL) | 32 (≈ 80 µg/mL) | 8 (≈ 20 µg/mL) | 8 (≈ 20 µg/mL) | > 128 | > 128 | > 128 | > 128 | 128 µM (≈ 320 µg/mL) | 16 | 64 (≈ 160 µg/mL) | 50% |  |
